Test results as given in patent US4792550A, “13-aza-14-oxo-TXA2 analogues” (Ono Pharmaceutical Co., Ltd., priority 1984, dated 1988).
pIC50: −log10 of the molar value. Where two headings read alike, the source gives them in different places.

Columns and labels:
[1] = system: contraction of artery induced by STA2; assay: Inhibitory activity on contraction of artery (increase of blood pressure) induced by STA2 in guinea pig; assay type: in vivo; conditions: male guinea pig, 100 μg/kg i.v., blood pressure at carotid artery; for inhibition in vivo at 0.1 mg/kg: Cavia porcellus, iv, read-out: Inhibitory ratios on contraction of artery
Method: (ii) inhibitory percentages on contraction of artery induced by STA2 in guinea pigs.
(ii) Inhibitory activity of increasing of blood pressure
A glycine-sodium hydroxide buffer solution (pH 10) of tested compound was administered intravenously to a urethaneanaesthetized male guinea pig weighing 200-350 g, at a rate of 100 μg/kg animal body weight via carotid vein.
And a solution of STA2 in phosphate buffer (pH 7.4) was administered intravenously. Change of the blood pressure was measured at carotid artery and then inhibition ratio (%) was calculated.

[2] = system: platelet aggregation induced by STA2 in human blood; assay: Inhibitory activity of platelet aggregation induced by STA2 in human blood; assay type: cell-based; conditions: method of Born, read-out: concentrations required 50% inhibition on platelet aggregation (IC50)
Method: (i) concentrations required 50% inhibition (IC50) on platelet aggregation using human blood induced by STA2 (9,11-epithio-15-hydroxy-11a-carbathromb-5Z,13E-dienoic acid), and
(i) Inhibitory activitv of platelet aggregation induced by STA2 in human blood
Whole blood of healthy human adult was collected with citric acid, and the mixture (20 ml) was centrifuged (180×g) for 10 min. The surpernatant obtained was diluted with sufficient platelet poor plasma to obtain plasma which contains 300,000 platelet cells per μl.
A solution of tested compound in ethanol (1 μl) was added to the obtained plasma (250 μl), and then a solution of STA2 in ethanol was added to the mixture. The measurement was carried out followed by the method of Born and then IC50 was calculated.

In the case of `CC(C)C(O)C(=O)N[C@H]1C[C@H]2C[C@@H]([C@@H]1C/C=C\CCCC(=O)O)C2(C)C` (single isomer, unassigned) [1(jj)], the “Inhibitory ratios on contraction of artery” value [1] was 46.8% and the pIC50 ([2]; Homo sapiens, Platelet) was 6.52.
In the case of `CC(C)C(O)C(=O)N[C@H]1C[C@H]2C[C@@H]([C@@H]1C/C=C\CCCC(=O)O)C2(C)C` (single isomer, unassigned) [1(kk)], the “Inhibitory ratios on contraction of artery” value [1] was 18.5% and the pIC50 [2] was 6.59.
For `CC1(C)[C@H]2C[C@H](NC(=O)CCSc3ccccc3)[C@@H](C/C=C\CCCC(=O)O)[C@@H]1C2` [1(aa)], the inhibition in vivo at 0.1 mg/kg [1] was 66.4% and the pIC50 ([2]; Homo sapiens, Platelet) was 6.54.
`CC1(C)[C@H]2C[C@H](NC(=O)C(O)CCc3ccccc3)[C@@H](C/C=C\CCCC(=O)O)[C@@H]1C2` (some centres unmarked) [1(b)] showed an inhibition in vivo at 0.1 mg/kg [1] of 75.2% and a pIC50 ([2]; Homo sapiens, Platelet) of 6.55.
With `CCCCCC(O)C(=O)N[C@H]1C[C@H]2C[C@@H]([C@@H]1C/C=C\CCCC(=O)O)C2(C)C` (some centres unmarked) [1(c)] the inhibition in vivo at 0.1 mg/kg [1] was 71.2% and the pIC50 ([2]; Homo sapiens, Platelet) was 6.49.
`CC1(C)[C@H]2C[C@H](NC(=O)CC3Cc4ccccc4C3)[C@@H](C/C=C\CCCC(=O)O)[C@@H]1C2` [1(cc)] showed a pIC50 ([2]; Homo sapiens, Platelet) of 6.15.
For `CCC(C)CC(=O)N[C@H]1C[C@H]2C[C@@H]([C@@H]1C/C=C\CCCC(=O)O)C2(C)C` (some centres unmarked) [1(dd)], the inhibition in vivo at 0.1 mg/kg [1] was 37.1% and the pIC50 ([2]; Homo sapiens, Platelet) was 6.26.
In the case of `CC(C)CC(=O)N[C@H]1C[C@H]2C[C@@H]([C@@H]1C/C=C\CCCC(=O)O)C2(C)C` [1(ee)], the inhibition in vivo at 0.1 mg/kg [1] was 39% and the pIC50 ([2]; Homo sapiens, Platelet) was 6.42.
`CC(C)CCC(=O)N[C@H]1C[C@H]2C[C@@H]([C@@H]1C/C=C\CCCC(=O)O)C2(C)C` [1(hh)] was tested, and the inhibition in vivo at 0.1 mg/kg [1] was 42% and the pIC50 ([2]; Homo sapiens, Platelet) was 6.52.
With `CC1(C)[C@H]2C[C@H](NC(=O)C3CCCC3)[C@@H](C/C=C\CCCC(=O)O)[C@@H]1C2` [1(o)] the inhibition in vivo at 0.1 mg/kg [1] was 34.2% and the pIC50 ([2]; Homo sapiens, Platelet) was 6.25.
For `CC1(C)[C@H]2C[C@H](NC(=O)CCCc3cccc(Cl)c3)[C@@H](C/C=C\CCCC(=O)O)[C@@H]1C2` [1(r)], the inhibition in vivo at 0.1 mg/kg [1] was 58.6% and the pIC50 ([2]; Homo sapiens, Platelet) was 6.17.
With `CC(CC(=O)N[C@H]1C[C@H]2C[C@@H]([C@@H]1C/C=C\CCCC(=O)O)C2(C)C)Cc1ccccc1` (some centres unmarked) [1(w)] the inhibition in vivo at 0.1 mg/kg [1] was 60.5% and the pIC50 ([2]; Homo sapiens, Platelet) was 6.72.
For `CC1(C)[C@H]2C[C@H](NC(=O)CC3CCCC3)[C@@H](C/C=C\CCCC(=O)O)[C@@H]1C2` [2(g)], the inhibition in vivo at 0.1 mg/kg [1] was 39% and the pIC50 ([2]; Homo sapiens, Platelet) was 6.38.
`CC1(C)[C@H]2C[C@H](NC(=O)C(Cl)C3CCCC3)[C@@H](C/C=C\CCCC(=O)O)[C@@H]1C2` (some centres unmarked) [2(h)] was tested, and the inhibition in vivo at 0.1 mg/kg [1] was 57.6% and the pIC50 ([2]; Homo sapiens, Platelet) was 6.35.
With `CCCCC(=O)N[C@H]1C[C@H]2C[C@@H]([C@@H]1C/C=C\CCCC(=O)O)C2(C)C` [2(j)] the inhibition in vivo at 0.1 mg/kg [1] was 27.3% and the pIC50 ([2]; Homo sapiens, Platelet) was 6.25.
`CC1(C)[C@H]2C[C@H](NC(=O)CCCc3ccccc3)[C@@H](C/C=C\CCCC(=O)O)[C@@H]1C2` [3(c)] was tested, and the inhibition in vivo at 0.1 mg/kg [1] was 78.1% and the pIC50 ([2]; Homo sapiens, Platelet) was 6.37.
`CC1(C)[C@H]2C[C@H](NC(=O)CCCCc3ccccc3)[C@@H](C/C=C\CCCC(=O)O)[C@@H]1C2` [3(g)] gave an inhibition in vivo at 0.1 mg/kg [1] of 60.5% and a pIC50 ([2]; Homo sapiens, Platelet) of 6.20.
`CCCCCC(=O)N[C@H]1C[C@H]2C[C@@H]([C@@H]1C/C=C\CCCC(=O)O)C2(C)C` [Example 6, 9α,11α-dimethylmethano-13-aza-14-oxo-20-nor-11a-carbathromb-5Z-enoic acid] showed an inhibition in vivo at 0.1 mg/kg [1] of 78.1% and a pIC50 ([2]; Homo sapiens, Platelet) of 6.17.
